Measured values: publication PMC8948406 (Journal for Immunotherapy of Cancer, 2022)
Read-outs that look alike come from different tables or passages of the source.

Key:
[1] = for Cmax, Clast and tmax versus other part and niraparib monotherapy: first dose
advanced solid tumors = details: cited from earlier work
[2] = target: PD-1 receptors on CD3+ T-cells (Homo sapiens, UniProt Q15116); test: PD-1 receptor occupancy by flow cytometry; format: cell-based; details: by end of treatment; parts A, B and D
[3] = Dostarlimab serum pharmacokinetics; format: in vivo, human; details: coadministration of niraparib, carboplatin–paclitaxel, or bevacizumab
non-squamous NSCLC = details: combination with chemotherapy; cited from earlier work

PD-1 receptors on CD3+ T-cells, sequence (Q15116 25-288): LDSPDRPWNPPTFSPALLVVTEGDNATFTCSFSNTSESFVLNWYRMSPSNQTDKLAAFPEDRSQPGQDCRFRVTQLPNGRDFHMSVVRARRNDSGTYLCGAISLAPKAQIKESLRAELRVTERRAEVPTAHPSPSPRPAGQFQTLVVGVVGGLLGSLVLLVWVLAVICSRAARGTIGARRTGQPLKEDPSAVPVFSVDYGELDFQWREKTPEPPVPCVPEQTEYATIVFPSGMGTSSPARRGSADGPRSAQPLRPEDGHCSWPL

NC(=O)c1cccc2cn(-c3ccc([C@@H]4CCCNC4)cc3)nc12 [niraparib, [3S]-3-[4-[7-(aminocarbonyl)-2H-indazol-2-yl]phenyl] piperidine]
Cmax lower in part C than in part A ([1]; 200 mg): 47.1%
Exposures (Cmax and AUClast) versus monotherapy ([1]; 200 mg, part A): comparable to monotherapy
AUClast higher in part C than in part A ([1]; 300 mg QD): approximately 46%
AUClast lower than niraparib monotherapy ([1]; 300 mg, part A): 9.6%
AUClast higher than niraparib monotherapy ([1]; 300 mg, part C): 31.6%
Cmax, Clast and tmax versus other part and niraparib monotherapy ([1]; 300 mg): consistent across both parts and similar to PK data for niraparib monotherapy
Cmax, Clast and tmax versus other part and niraparib monotherapy ([1]; 300 mg, listed as Niraparib): consistent in parts A and C
Variability of niraparib exposure ([1]; regardless of dose and cohort): ~ 50%
Variability of exposure, monotherapy data (advanced solid tumors): up to 66%

dostarlimab: PD-1 inhibitor; IgG4 humanized monoclonal antibody that binds with high affinity to PD-1
Overall mean PD-1 receptor occupancy [2]: 99.0%
Effect of the combination partners on dostarlimab PK [3]: no observed impact

pembrolizumab: anti-PD-1 antibody, given with chemotherapy in the cited trials
Grade ≥3 neutropenia (non-squamous NSCLC): 15.8%
